Key:
M2R [1] = conditions: Figure 1, M2R antagonists; published data, reference numbers not given; cited from earlier work
M1 = conditions: Figure 1; published data, reference numbers not given; cited from earlier work
M3 = conditions: Figure 1; published data, reference numbers not given; cited from earlier work
M4 = conditions: Figure 1; published data, reference numbers not given; cited from earlier work
M5 = conditions: Figure 1; published data, reference numbers not given; cited from earlier work
[2] = literature statement, reference numbers not given; cited from earlier work
hM1R = target: T1, hM1R (Homo sapiens, UniProt P11229); assay: Radioligand competition binding, [3H]-scopolamine (N-methyl), CHO cell membranes, hM1R; conditions: mean ± SD, n = 3; membranes from CHO cells transfected with hM1R; read-out: Receptor Ki M1
T1 construct: expressed in transfected cells; host or cells: CHO cell membranes
T1 sequence (P11229 1-460): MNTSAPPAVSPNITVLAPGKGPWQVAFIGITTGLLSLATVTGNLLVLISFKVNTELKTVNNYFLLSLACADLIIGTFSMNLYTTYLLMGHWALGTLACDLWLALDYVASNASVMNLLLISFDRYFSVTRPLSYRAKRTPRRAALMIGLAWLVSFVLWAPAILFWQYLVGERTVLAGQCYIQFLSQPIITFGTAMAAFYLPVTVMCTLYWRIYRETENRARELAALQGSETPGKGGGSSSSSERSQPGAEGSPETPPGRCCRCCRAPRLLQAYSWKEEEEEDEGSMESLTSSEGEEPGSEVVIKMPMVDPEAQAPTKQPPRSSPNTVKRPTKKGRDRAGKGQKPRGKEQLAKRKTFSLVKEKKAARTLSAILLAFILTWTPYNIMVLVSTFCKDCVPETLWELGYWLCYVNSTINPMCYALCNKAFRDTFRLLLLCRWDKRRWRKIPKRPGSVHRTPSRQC

hM4R = target: T2, hM4R (Homo sapiens, UniProt P08173); assay: Radioligand competition binding, [3H]-scopolamine (N-methyl), CHO cell membranes, hM4R; conditions: mean ± SD, n = 3; membranes from CHO cells transfected with hM4R; read-out: Receptor Ki M4
T2 construct: expressed in transfected cells; host or cells: CHO cell membranes
T2 sequence (P08173 1-479): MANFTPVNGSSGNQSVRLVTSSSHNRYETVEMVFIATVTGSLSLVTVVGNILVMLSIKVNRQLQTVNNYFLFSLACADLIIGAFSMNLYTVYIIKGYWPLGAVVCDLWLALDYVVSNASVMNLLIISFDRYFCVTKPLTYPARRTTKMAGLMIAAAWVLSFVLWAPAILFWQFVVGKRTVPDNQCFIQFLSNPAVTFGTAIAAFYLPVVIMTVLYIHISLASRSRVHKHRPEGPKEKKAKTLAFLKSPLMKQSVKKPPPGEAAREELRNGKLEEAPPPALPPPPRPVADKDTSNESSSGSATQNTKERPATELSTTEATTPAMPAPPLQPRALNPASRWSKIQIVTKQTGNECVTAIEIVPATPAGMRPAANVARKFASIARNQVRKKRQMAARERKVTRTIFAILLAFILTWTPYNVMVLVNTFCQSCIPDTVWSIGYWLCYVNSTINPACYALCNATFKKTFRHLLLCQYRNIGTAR

M2R [3] = target: T3, M2R (Homo sapiens, UniProt P08172); assay: BRET-based TRUPATH GoA activation assay, antagonism of carbachol-induced G protein activation; type: cell-based; conditions: for mode of antagonism of carbachol-induced G protein activation: TRUPATH GoA assay
T3 sequence (P08172 1-466): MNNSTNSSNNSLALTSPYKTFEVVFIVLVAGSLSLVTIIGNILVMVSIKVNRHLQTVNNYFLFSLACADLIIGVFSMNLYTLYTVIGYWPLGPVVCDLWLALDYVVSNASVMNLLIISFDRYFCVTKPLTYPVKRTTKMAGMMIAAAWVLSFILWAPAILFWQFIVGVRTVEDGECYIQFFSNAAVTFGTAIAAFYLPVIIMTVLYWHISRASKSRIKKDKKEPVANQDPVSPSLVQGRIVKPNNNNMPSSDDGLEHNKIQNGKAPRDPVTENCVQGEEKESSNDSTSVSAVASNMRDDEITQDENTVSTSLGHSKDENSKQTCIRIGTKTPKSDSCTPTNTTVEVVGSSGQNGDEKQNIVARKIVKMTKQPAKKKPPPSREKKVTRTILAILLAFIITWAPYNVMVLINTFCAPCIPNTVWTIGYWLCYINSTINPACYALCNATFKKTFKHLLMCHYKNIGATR

hM3R = target: T4, hM3R (Homo sapiens, UniProt P20309); assay: Radioligand competition binding, [3H]-scopolamine (N-methyl), CHO cell membranes, hM3R; conditions: mean ± SD, n = 3; membranes from CHO cells transfected with hM3R; read-out: Receptor Ki M3
T4 construct: expressed in transfected cells; host or cells: CHO cell membranes
T4 sequence (P20309 whole entry): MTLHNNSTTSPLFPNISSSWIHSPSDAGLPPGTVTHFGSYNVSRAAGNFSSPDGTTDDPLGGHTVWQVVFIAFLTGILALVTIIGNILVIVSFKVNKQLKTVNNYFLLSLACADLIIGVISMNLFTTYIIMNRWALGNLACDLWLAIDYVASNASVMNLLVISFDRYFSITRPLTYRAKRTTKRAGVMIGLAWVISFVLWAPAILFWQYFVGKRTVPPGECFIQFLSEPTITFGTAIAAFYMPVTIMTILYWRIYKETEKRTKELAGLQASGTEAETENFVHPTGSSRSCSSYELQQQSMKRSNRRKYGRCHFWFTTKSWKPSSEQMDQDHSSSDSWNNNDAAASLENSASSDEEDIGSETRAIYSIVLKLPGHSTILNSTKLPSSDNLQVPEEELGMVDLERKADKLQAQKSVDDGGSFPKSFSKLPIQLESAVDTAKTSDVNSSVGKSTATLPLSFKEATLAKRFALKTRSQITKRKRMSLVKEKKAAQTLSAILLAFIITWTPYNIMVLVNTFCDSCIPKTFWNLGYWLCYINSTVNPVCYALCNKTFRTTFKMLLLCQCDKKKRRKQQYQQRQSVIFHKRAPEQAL

hM5R = target: T5, hM5R (Homo sapiens, UniProt P08912); assay: Radioligand competition binding, [3H]-scopolamine (N-methyl), CHO cell membranes, hM5R; conditions: mean ± SD, n = 3; membranes from CHO cells transfected with hM5R; read-out: Receptor Ki M5
T5 construct: expressed in transfected cells; host or cells: CHO cell membranes
T5 sequence (P08912 1-532): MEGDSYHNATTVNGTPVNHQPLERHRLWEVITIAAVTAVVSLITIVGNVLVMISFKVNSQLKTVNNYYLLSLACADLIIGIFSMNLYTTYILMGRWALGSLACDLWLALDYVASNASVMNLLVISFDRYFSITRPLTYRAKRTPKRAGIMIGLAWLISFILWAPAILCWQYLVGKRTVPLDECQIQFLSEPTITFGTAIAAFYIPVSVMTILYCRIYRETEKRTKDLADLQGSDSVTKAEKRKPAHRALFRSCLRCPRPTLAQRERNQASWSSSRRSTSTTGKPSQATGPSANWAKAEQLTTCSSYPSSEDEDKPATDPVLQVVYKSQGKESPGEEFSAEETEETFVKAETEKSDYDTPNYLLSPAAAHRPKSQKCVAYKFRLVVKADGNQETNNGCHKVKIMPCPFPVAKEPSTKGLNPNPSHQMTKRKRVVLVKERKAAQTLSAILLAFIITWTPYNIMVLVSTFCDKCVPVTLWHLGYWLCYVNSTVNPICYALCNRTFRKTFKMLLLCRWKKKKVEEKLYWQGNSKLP

hM2R = target: T6, hM2R (Homo sapiens, UniProt P08172); assay: Radioligand competition binding, [3H]-scopolamine (N-methyl), CHO cell membranes, hM2R; conditions: mean ± SD, n = 3; membranes from CHO cells transfected with hM2R; read-out: Receptor Ki M2
T6 construct: expressed in transfected cells; host or cells: CHO cell membranes
T6 sequence (P08172 1-466): T3 sequence (P08172 1-466)

Ki (hM1R)	Ki (hM4R)	Ki (hM3R)	Ki (hM5R)	Compound	Ki (M2R [1])	M2R selectivity M1/M2 (M1)	mode of antagonism of carbachol-induced G protein activation (M2R [3])	further results
–	–	–	–	CCCC(C)(C)C(=O)N(CC)CCCC1CCN(CC(=O)N2c3ccc(Cl)cc3C(=O)Nc3cccnc32)CC1 [Compound 1]	30.2 nM	35	–	–
–	–	–	–	CCN(CC)CC1CCCCN1CC(=O)N1c2ccccc2C(=O)Nc2cccnc21 (stereo not drawn) [Compound 2]	105 nM	–	–	–
–	–	–	–	Cc1ccccc1C(=O)N1CCC(N2CCC(Cc3ccc(S(=O)(=O)c4ccc5c(c4)OCO5)cc3)CC2)CC1 [Compound 3]	0.02 nM	1400	–	M2R selectivity M3/M2 (M3): 730; M2R selectivity M4/M2 (M4): 37; M2R selectivity M5/M2 (M5): 280; pharmacokinetics [2]: poor
143 ± 11 nM	7.4 ± 0.6 nM	496 ± 36 nM	8.6 ± 0.7 nM	NCCOCCOCCNc1ccccc1C(=O)N1CCC(N2CCC(Cc3ccc(S(=O)(=O)c4cccc(Cl)c4)cc3)CC2)CC1 [Compound 30]	–	–	–	–
113 ± 8 nM	6.2 ± 0.9 nM	373 ± 38 nM	8.5 ± 0.9 nM	NCCOCCOCCC(=O)NCCOCCOCCNc1ccccc1C(=O)N1CCC(N2CCC(Cc3ccc(S(=O)(=O)c4cccc(Cl)c4)cc3)CC2)CC1.O=C(O)C(F)(F)F [Compound 32]	–	–	competitive antagonists	Ki (hM2R): 1.1 ± 0.1 nM; Log(IC50) ± SD (M), carbachol-induced GoA protein activation (M2R [3]; log10 of IC50 (negative values), HEK 293T, compound 20 min, then 10 μM carbachol 15 min, Hill-slope = 1, n = 3): –6.97 ± 0.12 M

Compound	Ki (hM1R)	Ki (hM4R)	Ki (hM3R)	Ki (hM5R)	Ki (M2R [1])	M2R selectivity M1/M2 (M1)	mode of antagonism of carbachol-induced G protein activation (M2R [3])	further results
Nc1ccccc1C(=O)N1CCC(N2CCC(Cc3ccc(S(=O)(=O)c4cccc(Cl)c4)cc3)CC2)CC1 [Compound 28]	425 ± 32 nM	9.4 ± 1.1 nM	–	–	–	–	competitive antagonists	oral bioavailability [2]: good

— PMC11995211, “Design, Synthesis, and Evaluation of a New Fluorescent Ligand for the M2 Muscarinic Acetylcholine Receptor” (ACS Medicinal Chemistry Letters, 2025)
